The values that follow come from the supplement of paper PMC10331698.

± gives the standard deviation of the averaged measurements.

Holding throughout (assay): level (log10 ratio to DMSO vehicle control); higher = higher biomarker level / cell amount than vehicle control
Compound in one assay: O=C(O)C(F)(F)C(F)(F)C(F)(F)C(F)(F)C(F)(F)C(F)(F)C(F)(F)C(F)(F)F [Perfluorononanoic acid] (in DMSO)
As for the experimental part: (§1)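 BioMAP Diversity Plus panel of 12 human primary cell co-culture systems (3C, 4H, LPS, SAg, BT, BF4T, BE3C, CASM3C, HDF3CGF, KF3CT, MyoF, Mphg). Compounds were added 1 h before stimulation and left for 24 h (MyoF 48 h; BT 72 h for soluble read-outs or 6 d for IgG). Biomarkers were read by ELISA, cytotoxicity by SRB, PBMC viability and proliferation by Alamar Blue. Each well value was divided by the mean of 8 DMSO control wells on the same plate and log10 transformed; duplicate blinded samples were tested at 4 concentrations.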

Compound in assay [1]: NS(=O)(=O)C(F)(F)C(F)(F)C(F)(F)C(F)(F)C(F)(F)C(F)(F)C(F)(F)C(F)(F)F [Perfluorooctanesulfonamide] (in DMSO)
The method, then:
as §1

Compound in assay [2]: CO[Si](C)(CCC(F)(F)C(F)(F)C(F)(F)C(F)(F)C(F)(F)C(F)(F)F)OC [Dimethoxymethyl((perfluorohexyl)ethyl)silane] (in DMSO)
The method, then:
as §1

Compound in assay [3]: OCC(F)(F)C(F)(F)C(F)(F)C(F)F [1H,1H,5H-Perfluoropentanol] (in DMSO)
As for the experimental part:
as §1

Compound in assay [4]: C=C(C)C(=O)OCCC(F)(F)C(F)(F)C(F)(F)C(F)(F)C(F)(F)C(F)(F)C(F)(F)C(F)(F)F [8:2 Fluorotelomer methacrylate] (in DMSO)
As for the experimental part: as §1

Compound in assay [5]: O=C(O)C(F)(F)OC(F)(F)C(F)(F)OC(F)(F)C(F)(F)OC(F)(F)C(F)(F)C(F)(F)C(F)(F)F [Perfluoro-3,6,9-trioxatridecanoic acid] (in DMSO)
Conditions: 6700 nM. As for the experimental part: as §1

Compound in assay [6]: O=C(O)C(F)(OC(F)(F)C(F)(F)C(F)(F)F)C(F)(F)F [Ammonium perfluoro-2-methyl-3-oxahexanoate] (in Water)
As for the experimental part: as §1

Compound in assay [7]: O=S(=O)(O)C(F)(F)C(F)(F)OC(F)(F)C(F)(F)F [Perfluoro(2-ethoxyethane)sulfonic acid] (in DMSO)
As for the experimental part: as §1

Take lMphg:CXCL8/IL-8: the “level (log10)” value in the assay with Perfluorononanoic acid (6700 nM) was 0.093 ± 0.03; with Perfluorononanoic acid (20000 nM), 0.186 ± 0.06; in assay [1] (6700 nM) it was 0.004 ± 0.0042; in assay [1] (20000 nM), 0.124 ± 0.019; in assay [2] (6700 nM), -0.0095 ± 0.029; in assay [2] (20000 nM), 0.0025 ± 0.015. For the same test system, the “level (log10)” value was 0.018 ± 0.017 in assay [3] (6700 nM); -0.0005 ± 0.019 in assay [3] (20000 nM); 0.035 ± 0.0028 in assay [3] (60000 nM); 0.0355 ± 0.023 in assay [4] (6700 nM); 0.085 ± 0.016 in assay [4] (20000 nM); 0.126 ± 0.016 in assay [5]. For the same test system, the “level (log10)” value came out at 0.137 ± 0.0021 in assay [6] (6700 nM); 0.194 ± 0.0078 in assay [6] (20000 nM); 0.261 ± 0.025 in assay [6] (60000 nM); 0.0055 ± 0.005 in assay [7] (6700 nM); 0.034 ± 0.018 in assay [7] (20000 nM); 0.118 ± 0.016 in assay [7] (60000 nM).

In the case of lMphg:IL-1alpha, the “level (log10)” value with Perfluorononanoic acid (6700 nM) was -0.017 ± 0.017; with Perfluorononanoic acid (20000 nM), 0.0495 ± 0.0035; in assay [1] (6700 nM), 0.053 ± 0.05; in assay [1] (20000 nM), 0.228 ± 0.028; in assay [2] (6700 nM), -0.032 ± 0.0014; in assay [2] (20000 nM), 0.0125 ± 0.073. For the same test system, the “level (log10)” value in assay [3] (6700 nM) is -0.055 ± 0.017; in assay [3] (20000 nM), -0.0185 ± 0.005; in assay [3] (60000 nM), 0.011 ± 0.044; in assay [4] (6700 nM) it was -0.007 ± 0.028; in assay [4] (20000 nM) it was 0.0165 ± 0.073; in assay [5] it was 0.013 ± 0.025. Also, the “level (log10)” value stood at 0.0825 ± 0.059 in assay [6] (6700 nM); 0.079 ± 0.055 in assay [6] (20000 nM); 0.11 ± 0.021 in assay [6] (60000 nM); 0.006 ± 0.011 in assay [7] (6700 nM); 0.012 ± 0.0071 in assay [7] (20000 nM); 0.0335 ± 0.026 in assay [7] (60000 nM).

As to lMphg:M-CSF, the “level (log10)” value with Perfluorononanoic acid (6700 nM) is -0.0215 ± 0.0064; with Perfluorononanoic acid (20000 nM), -0.006 ± 0.031; in assay [1] (6700 nM), -0.0445 ± 0.0092; in assay [1] (20000 nM), -0.029 ± 0.021; in assay [2] (6700 nM), -0.0075 ± 0.036; in assay [2] (20000 nM) it was 0.0135 ± 0.025. Besides, the “level (log10)” value in assay [3] (6700 nM) was 0.0115 ± 0.016; in assay [3] (20000 nM), -0.0125 ± 0.0064; in assay [3] (60000 nM) it was 0.0175 ± 0.021; in assay [4] (6700 nM) it was -0.013 ± 0.018; in assay [4] (20000 nM) it was -0.0365 ± 0.022; in assay [5] it was 0.023 ± 0.0071. Also, the “level (log10)” value is -0.084 ± 0.021 in assay [6] (6700 nM); -0.0725 ± 0.00071 in assay [6] (20000 nM); -0.0815 ± 0.011 in assay [6] (60000 nM); 0.0025 ± 0.0092 in assay [7] (6700 nM); -0.011 ± 0.0028 in assay [7] (20000 nM); -0.011 ± 0.0071 in assay [7] (60000 nM).

As for lMphg:SRB, the “level (log10)” value with Perfluorononanoic acid (6700 nM) was 0.008 ± 0.0042; with Perfluorononanoic acid (20000 nM), 0.0105 ± 0.021; in assay [1] (6700 nM), -0.013; in assay [1] (20000 nM), -0.052 ± 0.0085; in assay [2] (6700 nM), -0.0025 ± 0.0092; in assay [2] (20000 nM), -0.0045 ± 0.00071. Besides, the “level (log10)” value is -0.0065 ± 0.005 in assay [3] (6700 nM); -0.0045 ± 0.0064 in assay [3] (20000 nM); 0.006 ± 0.0014 in assay [3] (60000 nM); -0.0035 ± 0.0035 in assay [4] (6700 nM); -0.0055 ± 0.0064 in assay [4] (20000 nM); -0.014 ± 0.0085 in assay [5]. The “level (log10)” value in assay [6] (6700 nM) is -0.043 ± 0.0014; in assay [6] (20000 nM), -0.0435 ± 0.00071; in assay [6] (60000 nM), -0.0395 ± 0.0035; in assay [7] (6700 nM), -0.001 ± 0.0014; in assay [7] (20000 nM), 0 ± 0.013; in assay [7] (60000 nM), -0.021 ± 0.0071.

In the case of lMphg:SRB-Mphg, the “level (log10)” value was -0.0205 ± 0.035 in the assay with Perfluorononanoic acid (6700 nM); -0.062 ± 0.081 in the assay with Perfluorononanoic acid (20000 nM); -0.0005 ± 0.0064 in assay [1] (6700 nM); -0.027 ± 0.016 in assay [1] (20000 nM); 0.0195 ± 0.0021 in assay [2] (6700 nM); 0.0295 ± 0.0021 in assay [2] (20000 nM). For the same test system, the “level (log10)” value was -0.012 ± 0.023 in assay [3] (6700 nM); -0.0605 ± 0.057 in assay [3] (20000 nM); 0.0145 ± 0.033 in assay [3] (60000 nM); 0.0085 ± 0.011 in assay [4] (6700 nM); -0.009 ± 0.031 in assay [4] (20000 nM); 0.0035 ± 0.0035 in assay [5]. Also, the “level (log10)” value in assay [6] (6700 nM) is -0.0535 ± 0.036; in assay [6] (20000 nM), -0.046 ± 0.041; in assay [6] (60000 nM) it was -0.054 ± 0.041; in assay [7] (6700 nM), 0.0125 ± 0.005; in assay [7] (20000 nM) it was 0.0155 ± 0.015; in assay [7] (60000 nM), -0.0045 ± 0.025.

For lMphg:sIL-10, the “level (log10)” value was -0.0035 ± 0.026 with Perfluorononanoic acid (6700 nM); -0.093 ± 0.044 in the assay with Perfluorononanoic acid (20000 nM); -0.068 ± 0.021 in assay [1] (6700 nM); -0.169 ± 0.025 in assay [1] (20000 nM); -0.0465 ± 0.013 in assay [2] (6700 nM); -0.085 ± 0.014 in assay [2] (20000 nM). Besides, the “level (log10)” value was -0.0455 ± 0.069 in assay [3] (6700 nM); -0.012 ± 0.025 in assay [3] (20000 nM); -0.014 ± 0.027 in assay [3] (60000 nM); -0.107 ± 0.049 in assay [4] (6700 nM); -0.116 ± 0.0021 in assay [4] (20000 nM); -0.0585 ± 0.00071 in assay [5]. Moreover, the “level (log10)” value in assay [6] (6700 nM) was -0.36 ± 0.035; in assay [6] (20000 nM) it was -0.328 ± 0.018; in assay [6] (60000 nM) it was -0.467 ± 0.13; in assay [7] (6700 nM), 0.0105 ± 0.13; in assay [7] (20000 nM), -0.0625 ± 0.005; in assay [7] (60000 nM), -0.818 ± 0.028.
